In patent publication US10100082B2, “Hexapeptide for neuroprotection against a β toxicity” (Council of Scientific and Industrial Research, priority 2016, dated 2018):
Values belong to the substance of their own block, whether it stands above or below them. The star is where a group is joined. FITC = O=C1OC2(c3ccc(O)cc3Oc3cc(O)ccc32)c2ccc(NC(=S)*)cc21

Assays:
tubulin = tubulin mix with GTP, 30 min at 37° C., 561 nm channel
Method: Hexapeptide ‘NV’-Tubulin Interaction Study on Biotin Micropatterned Surface
Biotin micropatterned surfaces were prepared as previously described method. A flow chamber of around 5 μL was built from one biotin-patterned glass surface and one poly-L-lysine (PLL)-PEG passivated counter glass, separated by two strips of double sticky tape (Tesa). Flow chamber was equilibrated with BRB80 and incubated with β-casein for 10 min followed by washing with 20 μL BRB80 for complete removal of unbound β-casein. 100 nM neutravidin was flowed into the flow chamber and incubated for 10 min followed by removal of excess neutravidin with 20 μL BRB80. […] Then, the flow chamber was filled with 18.5 μM tubulin mix (80:20 unlabeled tubulin and Alexa568 tubulin) in BRB80 supplemented with 3 mM GTP, 10 mM MgCl2, and an oxygen scavenger system (50 mM glucose, 1 mg mL^−1 glucose oxidase, and 0.5 mg mL^−1 catalase) on an ice cold metal block and placed to the TIRF microscope at 37° C. Then flow chamber was imaged using an IX-81 total internal reflection fluorescence (TIRF) microscope (Olympus) with a 60×TIRFM objective (Olympus; Hamburg, Germany) and an Andor iXon3 897 Camera. Control experiment was performed, following previously described method without immobilizing ‘Bio-NV’ on biotin micropatterned surface.

[1] = test system: neuronally differentiated PC12 cells; assay: Neuroprotection against anti-NGF toxicity (NGF deprivation), intact nuclear counting; format: cell-based, rat; conditions: higher concentrations of NV
Method: On the fifth day they were treated overnight with anti-NGF along with different doses of inhibitor NV (FIG. 4d). […] The cells were observed under the microscope on the day following treatment; survival was assessed by intact nuclear counting assay (FIG. 4d).
Rat pheochromocytoma cells (PC12) cells were cultured as described previously (ESI) in RPMI medium supplemented with 10% heat-inactivated horse serum (HS) and 5% heat-inactivated fetal bovine serum. Neuronal differentiation of these cells was induced by NGF (100 ng/mL) in medium containing 1% horse serum for 6 days before the treatment, as previously described.
The cell viability was checked by the intact nuclear counting method. This assay was performed as described previously. In brief, a detergent containing the buffer that dissolved only the plasma membrane was added to the cells, the nuclear membrane thus remained intact. The intact nuclei were then counted on a haemocytometer under a light microscope. The number of live cells was expressed as percentage of the total cell population.

tau = conditions: previous study; cited from earlier work
amyloid beta = conditions: previous study; cited from earlier work
polymerized microtubules = assay: FITC-NV binding with microtubule at tubulin polymerization; conditions: FITC-NV during polymerization of alexa-568 labeled tubulin with GTP
Method: Hexapeptide NV Binding with Microtubule at Tubulin Polymerization
Mixture 1: Alexa Fluor 568-labeled tubulin (0.5 μL, 15 mg mL^−1, 65% labelling ratio), Tubulin (2 μL, 20 mg mL^−1), FITC-NV (0.5 μL, 1 mM), GTP (0.2 μL, […]) and BRB80 (46.8 μL; 80 mM PIPES, 1 mM EGTA; 1 mM MgCl2, pH adjusted to 6.8 by using concentrated KOH solution) were mixed on ice. The mixture was incubated for 30 min on 37° C. water bath.
Mixture 2: Taxol (0.4 μL, 1 mM) and BRB80 (180 μL) were mixed.
Final Mixture: After 30 min incubation 50 μL warmed mixture 2 was added into mixture 1. Then this mixture was separated in a table top centrifuge (7 min, 12000 rpm, Eppendorf 5810R bench-top centrifuge, rotor type F-34-6-38). The coloured pellet was resuspended in warm mixture 2. 10 μL resuspended solution of microtubule was placed on glass cover slip and imaged under inverted fluorescence microscope (NIKON Ti-U) in 40× magnification using ANDOR iXON3 camera.

Substance: Biotin-NAPVSIPQ-NH2 [Biotin-NV]
- binding of tubulin to immobilized Biotin-NV on micropatterns (tubulin): localized binding of tubulin

Substance: H-NAVSIQ-NH2 [NV, NH2-NAVSIQ-NH2]
- toxicity to control cells [1]: showed toxicity to control cells

Substance: NH2-NAPVSIPQ-NH2 [NQ]
- inhibition of tau hyper phosphorylation in vivo (tau): inhibit tau hyper phosphorylation in vivo
- inhibition of amyloid beta fibrillation in vitro (amyloid beta): inhibits amyloid beta fibrillation in vitro

- binding with polymerized microtubules (polymerized microtubules): binds with polymerized microtubules
Substance: {FITC}-NAVSIQ-NH2 [FITC-NV]
